According to patent publication US11530221B2, “Pyrimido[4,5-d]pyrimidin-2-one derivatives as protein kinase inhibitors” (KOREA INSTITUTE OF SCIENCE AND TECHNOLOGY, priority 2019, dated 2022):
Read-outs that look alike come from different tables or passages of the source. Square brackets hold non-standard residues; d marks the D form. Peptide text beside a SMILES is read from it. * marks the point of attachment. X1 = Cc1ccc(Nc2ncc3c(n2)N(C)C(=O)N(c2cc(C(=O)*)ccc2C)C3)cn1; Pip = O=C(O)[C@@H]1CCCCN1; Aze = O=C(O)[C@@H]1CCN1; Ac4c = NC1(C(=O)O)CCC1; Aib = CC(C)(N)C(=O)O

Experiments:
Assay type in all cases: biochemical
c-Src = c-Src (Homo sapiens, UniProt P12931); assay: IC50 inhibitory activity against c-Src kinase
c-Src, sequence (P12931 whole entry): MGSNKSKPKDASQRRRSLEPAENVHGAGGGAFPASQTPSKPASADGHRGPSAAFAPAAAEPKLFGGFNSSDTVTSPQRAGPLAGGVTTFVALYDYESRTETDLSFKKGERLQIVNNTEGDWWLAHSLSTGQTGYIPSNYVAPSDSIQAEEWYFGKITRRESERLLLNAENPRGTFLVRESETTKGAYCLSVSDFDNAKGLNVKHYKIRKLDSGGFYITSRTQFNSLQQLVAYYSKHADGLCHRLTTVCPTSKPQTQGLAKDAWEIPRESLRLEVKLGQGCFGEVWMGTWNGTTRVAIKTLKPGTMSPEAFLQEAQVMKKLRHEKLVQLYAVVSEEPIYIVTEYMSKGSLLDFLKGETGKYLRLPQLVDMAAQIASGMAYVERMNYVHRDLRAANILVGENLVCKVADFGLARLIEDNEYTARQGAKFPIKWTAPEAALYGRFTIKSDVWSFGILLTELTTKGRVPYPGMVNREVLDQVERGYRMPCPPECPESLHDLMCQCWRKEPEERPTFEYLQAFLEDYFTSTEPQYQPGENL
Method: (§1) IC50 values were calculated by measuring the inhibitory activity against LCK, c-Src, p38a/MAPK14, ABL1, DDR1 and FGR kinases of the compounds of the present invention.

ABL1 = ABL1 (Homo sapiens, UniProt P00519); assay: IC50 inhibitory activity against ABL1 kinase
ABL1, sequence (P00519 whole entry): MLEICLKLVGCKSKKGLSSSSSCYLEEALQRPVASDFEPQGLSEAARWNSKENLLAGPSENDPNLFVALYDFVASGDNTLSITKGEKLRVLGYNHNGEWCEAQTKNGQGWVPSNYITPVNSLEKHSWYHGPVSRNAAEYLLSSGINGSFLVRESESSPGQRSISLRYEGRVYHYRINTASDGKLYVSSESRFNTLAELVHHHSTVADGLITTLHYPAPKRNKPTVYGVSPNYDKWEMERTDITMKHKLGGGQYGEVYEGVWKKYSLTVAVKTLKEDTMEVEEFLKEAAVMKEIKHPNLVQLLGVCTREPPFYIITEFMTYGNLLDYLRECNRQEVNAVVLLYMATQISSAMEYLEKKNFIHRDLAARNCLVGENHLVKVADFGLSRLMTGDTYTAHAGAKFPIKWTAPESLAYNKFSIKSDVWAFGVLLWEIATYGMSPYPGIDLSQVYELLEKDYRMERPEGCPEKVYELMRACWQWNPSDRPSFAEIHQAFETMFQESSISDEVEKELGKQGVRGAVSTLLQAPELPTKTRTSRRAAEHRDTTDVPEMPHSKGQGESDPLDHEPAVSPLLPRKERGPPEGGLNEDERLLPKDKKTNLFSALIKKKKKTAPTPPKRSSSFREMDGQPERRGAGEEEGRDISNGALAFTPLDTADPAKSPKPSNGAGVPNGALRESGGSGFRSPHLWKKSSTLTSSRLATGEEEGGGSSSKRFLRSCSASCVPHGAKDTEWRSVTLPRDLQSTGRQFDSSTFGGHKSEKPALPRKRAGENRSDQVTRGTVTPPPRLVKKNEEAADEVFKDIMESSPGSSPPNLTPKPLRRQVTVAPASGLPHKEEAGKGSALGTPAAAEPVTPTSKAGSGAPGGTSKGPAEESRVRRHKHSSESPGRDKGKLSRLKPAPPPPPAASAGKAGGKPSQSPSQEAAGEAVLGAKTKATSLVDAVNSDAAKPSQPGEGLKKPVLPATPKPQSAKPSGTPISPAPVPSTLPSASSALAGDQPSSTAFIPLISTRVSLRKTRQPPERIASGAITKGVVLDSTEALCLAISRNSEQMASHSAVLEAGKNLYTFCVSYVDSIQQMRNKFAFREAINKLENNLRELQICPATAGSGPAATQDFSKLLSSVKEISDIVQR
Method: as §1

LCK = LCK (Homo sapiens, UniProt P06239); assay: IC50 inhibitory activity against LCK kinase
LCK, sequence (P06239 whole entry): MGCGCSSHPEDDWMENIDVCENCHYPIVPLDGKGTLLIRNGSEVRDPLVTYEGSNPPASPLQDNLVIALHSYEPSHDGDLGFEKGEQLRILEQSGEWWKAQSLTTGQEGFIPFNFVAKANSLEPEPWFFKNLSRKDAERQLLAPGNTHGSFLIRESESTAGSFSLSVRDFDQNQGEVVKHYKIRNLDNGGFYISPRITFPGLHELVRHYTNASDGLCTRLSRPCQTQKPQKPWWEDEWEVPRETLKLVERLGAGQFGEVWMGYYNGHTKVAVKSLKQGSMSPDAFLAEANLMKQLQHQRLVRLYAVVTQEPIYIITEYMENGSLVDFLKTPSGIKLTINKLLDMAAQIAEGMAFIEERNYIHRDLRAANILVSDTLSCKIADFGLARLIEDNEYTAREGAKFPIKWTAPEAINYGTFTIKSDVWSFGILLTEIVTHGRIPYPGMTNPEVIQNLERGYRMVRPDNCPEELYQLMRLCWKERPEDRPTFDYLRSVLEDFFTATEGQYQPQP
Method: as §1

Row | IC50 (c-Src; read-out: c-Src IC50) | IC50 (ABL1; read-out: ABL1 IC50) | IC50 (LCK; read-out: LCK IC50) | SMILES | IC50 (c-Src) | IC50 (ABL1) | IC50 (LCK)
1 | 0.2 to 0.4 µM | 0.001 to 0.2 µM | 0.001 to 0.2 µM | CC[C@H](C)[C@H](NC(=O)c1ccc(C)c(N2Cc3cnc(Nc4ccc(C)nc4)nc3N(C)C2=O)c1)C(=O)N1CCC[C@H]1C(=O)NC(C)(C)C(=O)N[C@@H](CC(C)C)C(=O)N(C)C [Example 16, (S)—N-(1-(((S)-1-(dimethylamino)-4-methyl-1-oxopentan-2-yl)amino)-2-methyl-1-oxopropan-2-yl)-1-((4-methyl-3-(1-methyl-7-((6-methylpyridin-3-yl)amino)-2-oxo-1,4-dihydropyrimido[4,5-d]pyrimidin-3(2H)-yl)benzoyl)-L-isoleucyl)pyrrolidine-2-carboxamide] (X1-IP[Aib]L-NMe2) | – | – | –
2 | 0.2 to 0.4 µM | 0.001 to 0.2 µM | 0.001 to 0.2 µM | Cc1ccc(Nc2ncc3c(n2)N(C)C(=O)N(c2cc(C(=O)N[C@@H](C)C(=O)N4CCC[C@H]4C(=O)NC(C)(C)C(=O)N[C@@H](CC(C)C)C(=O)N(C)C)ccc2C)C3)cn1 [Example 17, (S)—N-(1-(((S)-1-(dimethylamino)-4-methyl-1-oxopentan-2-yl)amino)-2-methyl-1-oxopropan-2-yl)-1-((4-methyl-3-(1-methyl-7-((6-methylpyridin-3-yl)amino)-2-oxo-1,4-dihydropyrimido[4,5-d]pyrimidin-3(2H)-yl)benzoyl)-L-alanyl)pyrrolidine-2-carboxamide] (X1-AP[Aib]L-NMe2) | – | – | –
3 | > 0.6 µM | – | 0.001 to 0.2 µM | Cc1ccc(Nc2ncc3c(n2)N(C)C(=O)N(c2cc(C(=O)N[C@H](C(=O)N4CCC[C@H]4C(=O)N[C@H](C(=O)N[C@H](C)c4ccccc4)C(C)C)C(C)C)ccc2C)C3)cn1 [Example 9, (S)—N—((S)-3-methyl-1-oxo-1-(((R)-1-phenylethyl)amino)butan-2-yl)-1-((4-methyl-3-(1-methyl-7-((6-methylpyridin-3-yl)amino)-2-oxo-1,4-dihydropyrimido[4,5-d]pyrimidin-3(2H)-yl)benzoyl)-L-valyl)pyrrolidine-2-carboxamide] | – | – | –
4 | > 0.6 µM | – | > 0.6 µM | Cc1ccc(Nc2ncc3c(n2)N(C)C(=O)N(c2cc(C(=O)N[C@H](C(=O)N4CCC[C@@H]4C(=O)NC(C)(C)C(=O)N[C@H](C(=O)N(C)C)C(C)C)C(C)C)ccc2C)C3)cn1 [Example 23, (R)—N-(1-(((S)-1-(dimethylamino)-3-methyl-1-oxobutan-2-yl)amino)-2-methyl-1-oxopropan-2-yl)-1-((4-methyl-3-(1-methyl-7-((6-methylpyridin-3-yl)amino)-2-oxo-1,4-dihydropyrimido[4,5-d]pyrimidin-3(2H)-yl)benzoyl)-L-valyl)pyrrolidine-2-carboxamide] (X1-V[dP][Aib]V-NMe2) | – | – | –
5 | > 0.6 µM | – | > 0.6 µM | Cc1ccc(Nc2ncc3c(n2)N(C)C(=O)N(c2cc(C(=O)N[C@H](C(=O)N4CCC[C@H]4C(=O)NC(C)(C)C(=O)N[C@H](C(=O)N(C)C)C(C)C)C(C)C)ccc2C)C3)cn1 [Example 22, (S)—N-(1-(((S)-1-(dimethylamino)-3-methyl-1-oxobutan-2-yl)amino)-2-methyl-1-oxopropan-2-yl)-1-((4-methyl-3-(1-methyl-7-((6-methylpyridin-3-yl)amino)-2-oxo-1,4-dihydropyrimido[4,5-d]pyrimidin-3(2H)-yl)benzoyl)-L-valyl)pyrrolidine-2-carboxamide] (X1-VP[Aib]V-NMe2) | – | – | –
6 | 0.4 to 0.6 µM | – | 0.001 to 0.2 µM | Cc1ccc(Nc2ncc3c(n2)N(C)C(=O)N(c2cc(C(=O)N[C@H](C(=O)N4CCCC[C@H]4C(=O)NC(C)(C)C(=O)N[C@@H](CC(C)C)C(=O)N(C)C)C(C)C)ccc2C)C3)cn1 [Example 13, (S)—N-(1-(((S)-1-(dimethylamino)-4-methyl-1-oxopentan-2-yl)amino)-2-methyl-1-oxopropan-2-yl)-1-((4-methyl-3-(1-methyl-7-((6-methylpyridin-3-yl)amino)-2-oxo-1,4-dihydropyrimido[4,5-d]pyrimidin-3(2H)-yl)benzoyl)-L-valyl)piperidine-2-carboxamide] (X1-V[Pip][Aib]L-NMe2) | – | – | –

More lines, now with the values behind:

Row | SMILES | IC50 (c-Src; read-out: c-Src IC50) | IC50 (ABL1; read-out: ABL1 IC50) | IC50 (LCK; read-out: LCK IC50) | IC50 (c-Src) | IC50 (ABL1) | IC50 (LCK)
7 | Cc1ccc(Nc2ncc3c(n2)N(C)C(=O)N(c2cc(C(=O)N[C@H](C(=O)N4CC[C@H]4C(=O)NC(C)(C)C(=O)N[C@@H](CC(C)C)C(=O)N(C)C)C(C)C)ccc2C)C3)cn1 [Example 15, (S)—N-(1-(((S)-1-(dimethylamino)-4-methyl-1-oxopentan-2-yl)amino)-2-methyl-1-oxopropan-2-yl)-1-((4-methyl-3-(1-methyl-7-((6-methylpyridin-3-yl)amino)-2-oxo-1,4-dihydropyrimido[4,5-d]pyrimidin-3(2H)-yl)benzoyl)-L-valyl)azetidine-2-carboxamide] (X1-V[Aze][Aib]L-NMe2) | – | – | – | > 0.6 µM | 0.001 to 0.2 µM | 0.2 to 0.4 µM
8 | Cc1ccc(Nc2ncc3c(n2)N(C)C(=O)N(c2cc(C(=O)NCC(=O)N4CCC[C@H]4C(=O)NC(C)(C)C(=O)N[C@@H](CC(C)C)C(=O)N(C)C)ccc2C)C3)cn1 [Example 18, (S)—N-(1-(((S)-1-(dimethylamino)-4-methyl-1-oxopentan-2-yl)amino)-2-methyl-1-oxopropan-2-yl)-1-((4-methyl-3-(1-methyl-7-((6-methylpyridin-3-yl)amino)-2-oxo-1,4-dihydropyrimido[4,5-d]pyrimidin-3(2H)-yl)benzoyl)glycyl)pyrrolidine-2-carboxamide] (X1-GP[Aib]L-NMe2) | – | – | – | 0.4 to 0.6 µM | 0.001 to 0.2 µM | 0.2 to 0.4 µM
9 | Cc1ccc(Nc2ncc3c(n2)N(C)C(=O)N(c2cc(NC(=O)[C@H](Cc4c[nH]c5ccccc45)NC(=O)c4ccc([N+](=O)[O-])c(OCC(C)C)c4)ccc2C)C3)cn1 [Example 55] | – | > 0.6 µM | – | – | – | –
10 | Cc1ccc(Nc2ncc3c(n2)N(C)C(=O)N(c2cc(C(=O)N[C@@H](C(=O)N4CCC[C@@H]4C(=O)NC(C)(C)C(=O)N[C@H](CC(C)C)C(=O)N(C)C)C(C)C)ccc2C)C3)cn1 [Example 10, (R)—N-(1-(((R)-1-(dimethylamino)-4-methyl-1-oxopentan-2-yl)amino)-2-methyl-1-oxopropan-2-yl)-1-((4-methyl-3-(1-methyl-7-((6-methylpyridin-3-yl)amino)-2-oxo-1,4-dihydropyrimido[4,5-d]pyrimidin-3(2H)-yl)benzoyl)-D-valyl)pyrrolidine-2-carboxamide] (X1-[dV][dP][Aib][dL]-NMe2) | – | – | – | > 0.6 µM | – | 0.2 to 0.4 µM
11 | Cc1ccc(Nc2ncc3c(n2)N(C)C(=O)N(c2cc(C(=O)N[C@@H](C)C(=O)N4CCC[C@H]4C(=O)NC(C)(C)C(=O)N[C@H](C(=O)N(C)C)C(C)C)ccc2C)C3)cn1 [Example 25, (S)—N-(1-(((S)-1-(dimethylamino)-3-methyl-1-oxobutan-2-yl)amino)-2-methyl-1-oxopropan-2-yl)-1-((4-methyl-3-(1-methyl-7-((6-methylpyridin-3-yl)amino)-2-oxo-1,4-dihydropyrimido[4,5-d]pyrimidin-3(2H)-yl)benzoyl)-L-alanyl)pyrrolidine-2-carboxamide] (X1-AP[Aib]V-NMe2) | – | – | – | > 0.6 µM | – | 0.2 to 0.4 µM
12 | Cc1ccc(Nc2ncc3c(n2)N(C)C(=O)N(c2cc(NC(=O)c4ccc5c(c4)NC(=O)[C@H](Cc4ccccc4C)N=C5c4ccccc4)ccc2C)C3)cn1 [Example 29, (S)—N-(4-methyl-3-(1-methyl-7-((6-methylpyridin-3-yl)amino)-2-oxo-1,4-dihydropyrimido[4,5-d]pyrimidin-3(2H)-yl)phenyl)-3-(2-methylbenzyl)-2-oxo-5-phenyl-2,3-dihydro-1H-benzo[e][1,4]diazepine-8-carboxamide] | 0.001 to 0.2 µM | – | 0.001 to 0.2 µM | – | – | –
13 | Cc1ccc(Nc2ncc3c(n2)N(C)C(=O)N(c2cc(C(=O)N[C@H](C(=O)N4CCC[C@H]4C(=O)NC4(C(=O)N[C@@H](CC(C)C)C(=O)N(C)C)CCC4)C(C)C)ccc2C)C3)cn1 [Example 12, (S)—N-(1-(((S)-1-(dimethylamino)-4-methyl-1-oxopentan-2-yl)carbamoyl)cyclobutyl)-1-((4-methyl-3-(1-methyl-7-((6-methylpyridin-3-yl)amino)-2-oxo-1,4-dihydropyrimido[4,5-d]pyrimidin-3(2H)-yl)benzoyl)-L-valyl)pyrrolidine-2-carboxamide] (X1-VP[Ac4c]L-NMe2) | – | – | – | > 0.6 µM | – | 0.001 to 0.2 µM
14 | C=CCCC1=N[C@@H](CC(=O)Nc2ccc(C)c(N3Cc4cnc(Nc5ccc(C)nc5)nc4N(C)C3=O)c2)C(=O)N(C)c2ccccc21 [Example 45, (S)-2-(5-(but-3-en-1-yl)-1-methyl-2-oxo-2,3-dihydro-1H-benzo[e][1,4]diazepin-3-yl)-N-(4-methyl-3-(1-methyl-7-((6-methylpyridin-3-yl)amino)-2-oxo-1,4-dihydropyrimido[4,5-d]pyrimidin-3(2H)-yl)phenyl)acetamide] | 0.001 to 0.2 µM | – | 0.001 to 0.2 µM | – | – | –
15 | Cc1ccc(Nc2ncc3c(n2)N(C)C(=O)N(c2cc(C(=O)N[C@@H](Cc4ccccc4)C(=O)N4CCC[C@@H]4C(=O)N[C@H](C(=O)N[C@H](C)c4ccccc4)C(C)C)ccc2C)C3)cn1 [Example 7, (R)—N—((S)-3-methyl-1-oxo-1-(((R)-1-phenylethyl)amino)butan-2-yl)-1-((4-methyl-3-(1-methyl-7-((6-methylpyridin-3-yl)amino)-2-oxo-1,4-dihydropyrimido[4,5-d]pyrimidin-3(2H)-yl)benzoyl)-L-phenylalanyl)pyrrolidine-2-carboxamide] | 0.4 to 0.6 µM | – | 0.001 to 0.2 µM | – | – | –
16 | Cc1ccc(Nc2ncc3c(n2)N(C)C(=O)N(c2cc(NC(=O)c4ccc5c(c4)NC(=O)[C@H](Cc4cccc(F)c4)N=C5c4ccccc4)ccc2C)C3)cn1 [Example 27, (S)-3-(3-fluorobenzyl)-N-(4-methyl-3-(1-methyl-7-((6-methylpyridin-3-yl)amino)-2-oxo-1,4-dihydropyrimido[4,5-d]pyrimidin-3(2H)-yl)phenyl)-2-oxo-5-phenyl-2,3-dihydro-1H-benzo[e][1,4]diazepine-8-carboxamide] | 0.001 to 0.2 µM | – | 0.001 to 0.2 µM | – | – | –
